In patent publication US20050165081A1, “Use of anastrozole for the treatment of post-menopausal women having early breast cancer” (priority 2001, published 2005):
“Also recorded” adds a separate entry of the source. Structures can show the parent of a compound that is named as a salt. Where two headings read alike, the source gives them in different places.

Tests used:
early breast cancer = assay: Randomised, double-blind, multicentre adjuvant trial: time to disease recurrence / disease-free survival and new breast primaries; type: in vivo, post-menopausal women; details: for First event / First events: Contralateral (DCIS) / First events: Contralateral (invasive) / First events: Death - breast cancer / First events: Death - other reason / First events: Distant / First events: Locoregional: number of first events, ITT population
Protocol: (§1) The trial was designed to compare tamoxifen (20 mg once daily [od]) and anastrozole (1 mg od) and to compare tamoxifen (20 mg od) and the combination of anastrozole (1 mg od) plus tamoxifen (20 mg od) as adjuvant treatment in terms of: • a) time to recurrence of breast cancer (defined as the earliest of local or distant recurrence, new primary breast cancer, or death); and • b) safety and side effects. Secondary objectives of this trial were to compare (i) tamoxifen and anastrozole and (ii) to compare tamoxifen and the combination of anastrozole plus tamoxifen as adjuvant treatment in terms of: • a) time to distant recurrence; • b) survival; and • c) incidence of new breast primaries.
(§2) Specifically, the trial was designed as a randomised, double-blind, multicentre trial to compare the efficacy and safety of tamoxifen alone, anastrozole alone and anastrozole in combination with tamoxifen as adjuvant treatment for breast cancer in post-menopausal women.
Patients were assessed at entry, 3 months, 6 months and thereafter at 6-month intervals. Patients were recruited from 381 centres and in 21 countries. The patients were recruited between July 1996 and March 2000.
The double blind trial used both active and placebo anastrozole and tamoxifen tables, in order to maintain blindness to trial therapy. Anastrozole 1 mg and matching anastrozole placebo were supplied as white, film-coated tablets. Tamoxifen 20 mg active tablets and matching tamoxifen placebo were supplied as white, round, biconvex tablets. Patients were randomised to receive one of three oral therapy regimens. The daily dose is one tablet of anastrozole (1 mg active or placebo) plus one tablet of tamoxifen (20 mg active or placebo). Patients were instructed to take their daily dose at approximately the same time each day. At entry to the trial patients received either a 13-week supply or a 26-week supply of trial material. Patients who received a 13-week supply received a further 13-week supply at the first follow-up visit (3-months). From the 6-month visit onwards, patients received a 26-week supply. In order to assess compliance, patients were asked to return all unused tablets at each visit.
Therapy was started as soon as possible after randomisation, but not more than 8 weeks after completion of surgery and chemotherapy. […] Primary chemotherapy must have started within 8 weeks of completing primary surgery. Patients who stop primary chemotherapy before completion of the planned number of cycles may also be randomised. […] These drugs include the following:— • cytotoxic chemotherapy; • oral adminstration of ketoconazole (antifungal) or related compounds (i.e. topical applications are acceptable); • other hormonal treatments for breast cancer.
Patients were reviewed for recurrence of breast cancer at all follow-up visits, using the following criteria, which are based on British Breast Group recommendations:—
New breast primaries (either contralateral or ipsilateral) were regarded as disease recurrence events in the statistical analyses of time to recurrence.
The primary statistical endpoint of the trial was time to disease recurrence (locoregional or distant recurrence, new primary breast cancer or death from any cause) and safety/tolerability. The secondary statistical endpoints were time to distant recurrence, time to death, the incidence of new breast primaries and the incidence of pre-defined adverse events. In summary, two treatment comparisons were made: (1) anastrozole alone compared to tamoxifen alone and (2) tamoxifen alone compared to anastrozole and tamoxifen in combination.

[1] = type: in vivo
Protocol: as §1, §2
At the major analysis, the incidence rates of the following pre-defined adverse events was formally compared between treatment groups defined by treatment received: hot flushes, nausea and vomiting, asthenia, mood disturbances, musculo-skeletal disorders, vaginal bleeding, vaginal discharge, endometrial cancer, fractures, cataract, venous thromboembolic events, and ischaemic cardiovascular disease. The primary analysis includes all patients who received trial treatment, analysed according to treatment received. A secondary subgroup analysis was also be undertaken, analysed according to trial treatment received, in patients with oestrogen receptor (ER) positive and/or progesterone receptor (PR) positive tumours, patients with ER negative and PR negative tumours, and all other patients remaining safety data was summarised and presented by treatment received.

advanced breast cancer = details: advanced disease, cited from earlier work
breast cancer = details: adjuvant tamoxifen for two years or more, no concomitant chemotherapy; cited from earlier work

What does the source list for CC(C)(C#N)c1cc(Cn2cncn2)cc(C(C)(C)C#N)c1 [anastrozole]?
rate of disease recurrence, comparison in words (early breast cancer; FIG. 2, receptor positive population): superior to tamoxifen; HR, disease-free survival (early breast cancer; ITT (overall) population, versus tamoxifen, HR <1.00 favours anastrozole or the combination): 0.83; reduction in recurrence rate (early breast cancer; hormone receptor positive (ER and/or PR positive) patients, versus tamoxifen): 22%; reduction in the rate of recurrence events (early breast cancer; main analysis, all patients, versus tamoxifen, locoregional, distant, contralateral events and deaths): 17%; First event (early breast cancer): 317; First events: Contralateral (DCIS) (early breast cancer): 5; First events: Contralateral (invasive) (early breast cancer): 9; First events: Death - breast cancer (early breast cancer): 2; First events: Death - other reason (early breast cancer): 78; First events: Distant (early breast cancer): 156; First events: Locoregional (early breast cancer): 67; incidence of new primary (contralateral) breast cancer, comparison in words (early breast cancer; overall population): significantly more effective than tamoxifen; disease-free survival / rate of disease recurrence, comparison in words (early breast cancer; overall population, adjuvant treatment of early breast cancer): significantly more effective than tamoxifen; also recorded: superior to tamoxifen; incidence of new primary (contralateral) breast cancer, comparison in words (early breast cancer; overall population, listed as anastrazole): superiority; HR, incidence of new (contralateral) breast primaries (early breast cancer; overall population, versus tamoxifen): 0.42; OR, incidence of contralateral breast cancer (early breast cancer; overall population, versus tamoxifen, 1.00 would show equivalence): 0.42; HR, disease-free survival (early breast cancer; receptor positive population, versus tamoxifen): 0.78; overall tolerability in the adjuvant programme ([1]; FIG. 4, pre-defined adverse events): well tolerated; tolerability versus tamoxifen ([1]; endometrial cancer, vaginal bleeding, vaginal discharge, ischemic cerebrovascular events, venous thromboembolic events, hot flushes, weight gain): significantly better tolerated

Which results are given for CC/C(=C(\c1ccccc1)c1ccc(OCCN(C)C)cc1)c1ccccc1 [tamoxifen, tamoxifen citrate]?
First event (early breast cancer): 379; First events: Contralateral (DCIS) (early breast cancer): 3; First events: Contralateral (invasive) (early breast cancer): 30; First events: Death - breast cancer (early breast cancer): 1; First events: Death - other reason (early breast cancer): 81; First events: Distant (early breast cancer): 181; First events: Locoregional (early breast cancer): 83; tolerability versus anastrozole ([1]; musculoskeletal disorders and fractures): better tolerated; patients who will respond (advanced breast cancer; ER and PR negative patients): < 10%; patients who will respond (advanced breast cancer; ER and PR positive patients): approximately 70%; annual reduction in mortality (breast cancer): 24%; annual reduction in recurrence (breast cancer): 39%
